Where two headings read alike, the source gives them in different places.
What was measured:
TK6 cells = test: MTT assay of cell growth in TK6 cells; assay type: cell-based, human; conditions: read-out: IC50 on cell growth
[1] = system: human hepatoma HepG2 cells; conditions: 48 h exposure, ref [30]; cited from earlier work
[2] = system: immortalized normal liver THLE2 cells; conditions: 48 h exposure, ref [30]; cited from earlier work
TK6/SULT2A1 cells [3] = test: MTT assay of cell growth in TK6/SULT2A1 cells; conditions: for IC50: read-out: IC50 on cell growth
TK6/SULT vector cells [4] = test: MTT assay of cell growth in TK6/SULT vector cells; conditions: for IC50: read-out: IC50 on cell growth
SULT1C2 = SULT1C2 (Homo sapiens, UniProt O00338); test: Sulfonation by cytosol of HEK293/SULT1C2-overexpressing cells; assay type: in vitro ADME; conditions: 250 μM [14C]triclosan, 0.5 mg cytosolic protein, 500 μM PAPS, pH 7.2, 37 °C, 2 h
SULT2B1 = target: T1, SULT2B1 (Homo sapiens, UniProt O00204); test: Sulfonation by cytosol of HEK293/SULT2B1-overexpressing cells; assay type: in vitro ADME; conditions: 250 μM [14C]triclosan, 0.5 mg cytosolic protein, 500 μM PAPS, pH 7.2, 37 °C, 2 h
T1 sequence (O00204 1-365): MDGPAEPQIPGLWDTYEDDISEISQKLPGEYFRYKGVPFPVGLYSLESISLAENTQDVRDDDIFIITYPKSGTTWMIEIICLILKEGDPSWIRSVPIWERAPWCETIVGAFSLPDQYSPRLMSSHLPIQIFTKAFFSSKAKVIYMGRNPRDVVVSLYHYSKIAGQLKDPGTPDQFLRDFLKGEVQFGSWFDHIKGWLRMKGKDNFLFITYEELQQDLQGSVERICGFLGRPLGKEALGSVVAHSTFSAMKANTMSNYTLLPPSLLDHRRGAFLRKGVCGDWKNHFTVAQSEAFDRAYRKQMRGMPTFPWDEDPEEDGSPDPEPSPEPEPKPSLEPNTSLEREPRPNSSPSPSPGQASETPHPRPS

SULT4A1 = target: T2, SULT4A1 (Homo sapiens, UniProt Q9BR01); test: Sulfonation by cytosol of HEK293/SULT4A1-overexpressing cells; assay type: in vitro ADME; conditions: 250 μM [14C]triclosan, 0.5 mg cytosolic protein, 500 μM PAPS, pH 7.2, 37 °C, 2 h
T2 sequence (Q9BR01 1-284): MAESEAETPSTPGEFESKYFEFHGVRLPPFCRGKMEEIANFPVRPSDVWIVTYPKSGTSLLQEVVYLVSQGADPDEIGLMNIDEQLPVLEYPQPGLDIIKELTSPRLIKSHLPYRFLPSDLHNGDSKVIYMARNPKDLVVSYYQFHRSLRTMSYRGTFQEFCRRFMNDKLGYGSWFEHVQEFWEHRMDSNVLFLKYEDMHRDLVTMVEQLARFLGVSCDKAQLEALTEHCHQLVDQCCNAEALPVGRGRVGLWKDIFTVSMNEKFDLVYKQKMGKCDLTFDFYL

SULT6B1 = target: T3, SULT6B1 (Homo sapiens, UniProt Q6IMI4); test: Sulfonation by cytosol of HEK293/SULT6B1-overexpressing cells; assay type: in vitro ADME; conditions: 250 μM [14C]triclosan, 0.5 mg cytosolic protein, 500 μM PAPS, pH 7.2, 37 °C, 2 h
T3 sequence (Q6IMI4 1-303): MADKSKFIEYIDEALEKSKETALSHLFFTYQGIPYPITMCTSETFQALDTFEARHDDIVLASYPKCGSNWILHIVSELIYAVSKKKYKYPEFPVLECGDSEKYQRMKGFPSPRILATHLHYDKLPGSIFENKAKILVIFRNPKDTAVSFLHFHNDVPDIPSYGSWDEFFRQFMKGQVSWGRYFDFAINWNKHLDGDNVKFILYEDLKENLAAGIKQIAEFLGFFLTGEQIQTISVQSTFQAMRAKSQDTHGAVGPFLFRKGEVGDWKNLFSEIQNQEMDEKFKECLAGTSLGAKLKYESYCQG

[5] = target: T4, cytosols from TK6/SULT2A1 cells (Homo sapiens, UniProt Q06520); test: Sulfonation of triclosan by cytosols from TK6/SULT2A1 cells; assay type: in vitro ADME; conditions: not in TK6 and TK6/SULT vector cytosols
T4 sequence (Q06520 1-285): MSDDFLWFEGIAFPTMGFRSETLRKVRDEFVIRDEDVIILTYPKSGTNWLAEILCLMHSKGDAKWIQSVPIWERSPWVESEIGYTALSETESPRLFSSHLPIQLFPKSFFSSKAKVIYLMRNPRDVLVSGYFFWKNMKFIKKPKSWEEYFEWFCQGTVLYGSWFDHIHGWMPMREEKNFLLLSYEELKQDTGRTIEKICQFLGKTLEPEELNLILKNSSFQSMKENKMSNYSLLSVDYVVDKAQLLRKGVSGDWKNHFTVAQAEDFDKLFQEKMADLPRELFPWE

[6] = Stability of 12-sulfoxynevirapine in buffer by reversed-phase HPLC; assay type: physicochemical; conditions: up to 2 months
TK6/SULT vector cells [7] = assay type: cell-based, human
SULT1A1 [8] = target: T5, SULT1A1 (Homo sapiens, UniProt P50225)
SULT1C4 [9] = target: T6, SULT1C4 (Homo sapiens, UniProt O75897)
SULT1E1 [10] = target: T7, SULT1E1 (Homo sapiens, UniProt P49888)
T7 sequence (P49888 1-294): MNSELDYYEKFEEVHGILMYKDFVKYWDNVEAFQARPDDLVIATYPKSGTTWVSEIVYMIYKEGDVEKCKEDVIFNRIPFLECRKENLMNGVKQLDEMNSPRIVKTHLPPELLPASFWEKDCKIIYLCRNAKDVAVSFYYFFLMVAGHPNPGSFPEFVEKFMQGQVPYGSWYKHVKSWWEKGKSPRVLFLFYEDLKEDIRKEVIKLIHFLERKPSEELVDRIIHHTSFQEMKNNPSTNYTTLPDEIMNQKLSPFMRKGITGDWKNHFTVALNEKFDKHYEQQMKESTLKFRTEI

SULT2A1 [11] = target: T8, SULT2A1 (Homo sapiens, UniProt Q06520)
T8 sequence (Q06520 1-285): T4 sequence (Q06520 1-285)

TK6/SULT vector cells [12] = conditions: 45 µM
TK6/SULT2A1 cells [13] = conditions: 90 µM
[14] = Sulfonation activity of pooled human liver cytosols; conditions: Human liver cytosol; 1 h at 37 °C; mean ± s.d., three experiments
SULT1A1 [15] = target: T5, SULT1A1; test: Sulfonation by cytosol of HEK293/SULT1A1-overexpressing cells; conditions: SULT1A1 cytosol; 1 h at 37 °C; mean ± s.d., three experiments
SULT1C4 [16] = target: T6, SULT1C4; test: Sulfonation by cytosol of HEK293/SULT1C4-overexpressing cells; conditions: SULT1C4 cytosol; 1 h at 37 °C; mean ± s.d., three experiments
SULT1E1 [17] = target: T7, SULT1E1; test: Sulfonation by cytosol of HEK293/SULT1E1-overexpressing cells; conditions: SULT1E1 cytosol; 1 h at 37 °C; mean ± s.d., three experiments
SULT1E1 [18] = target: T7, SULT1E1; test: Inhibition of SULT1E1-catalyzed sulfonation of triclosan; assay type: biochemical; conditions: 10 μM pentachlorophenol, preliminary experiments
SULT2A1 [19] = target: T8, SULT2A1; test: Inhibition of SULT2A1-catalyzed sulfonation of triclosan; assay type: biochemical; conditions: 10 μM pentachlorophenol, preliminary experiments

T6 sequence (O75897 whole entry): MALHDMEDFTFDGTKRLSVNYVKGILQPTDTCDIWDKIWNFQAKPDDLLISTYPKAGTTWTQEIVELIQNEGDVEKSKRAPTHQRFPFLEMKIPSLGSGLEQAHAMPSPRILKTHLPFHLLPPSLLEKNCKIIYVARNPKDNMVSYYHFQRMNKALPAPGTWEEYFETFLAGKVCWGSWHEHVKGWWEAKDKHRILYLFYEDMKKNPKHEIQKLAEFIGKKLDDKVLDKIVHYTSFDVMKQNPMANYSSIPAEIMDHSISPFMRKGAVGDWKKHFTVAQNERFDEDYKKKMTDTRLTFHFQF
T5 sequence (P50225 whole entry): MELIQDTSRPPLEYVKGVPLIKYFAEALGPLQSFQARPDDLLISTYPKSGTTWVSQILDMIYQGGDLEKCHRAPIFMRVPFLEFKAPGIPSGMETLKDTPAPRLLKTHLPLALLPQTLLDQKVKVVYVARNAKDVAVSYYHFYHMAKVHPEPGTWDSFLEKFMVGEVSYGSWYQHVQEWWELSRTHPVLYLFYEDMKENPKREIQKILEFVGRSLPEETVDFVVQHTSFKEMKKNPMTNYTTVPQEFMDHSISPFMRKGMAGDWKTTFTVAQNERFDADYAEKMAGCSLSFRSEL
Sequence of SULT1C2 (O00338 whole entry): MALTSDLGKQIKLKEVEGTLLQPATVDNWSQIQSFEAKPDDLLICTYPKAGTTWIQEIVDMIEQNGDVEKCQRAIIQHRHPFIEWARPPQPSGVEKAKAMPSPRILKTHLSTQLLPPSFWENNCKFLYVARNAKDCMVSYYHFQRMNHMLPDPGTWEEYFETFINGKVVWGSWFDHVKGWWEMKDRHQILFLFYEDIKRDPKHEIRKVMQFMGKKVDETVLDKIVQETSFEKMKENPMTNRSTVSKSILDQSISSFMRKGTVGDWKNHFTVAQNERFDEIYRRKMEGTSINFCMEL

In the case of `Cc1ccnc2c1NC(=O)c1cccnc1N2C1CC1` [Nevirapine, 11-cyclopropyl-5,11-dihydro-4-methyl-6H-dipyrido [3,2-b:2′,3′-e][1, 4]diazepin-6-one], the IC50 (TK6 cells; Homo sapiens, TK6, 48 h) is given as roughly 130 µM, the “Concentration that inhibited cell growth” value [1] is given as “approximately 1.0 mM” and the “Concentration that inhibited cell growth” value [2] is given as “approximately 1.0 mM”. It also gave an IC50 (TK6/SULT2A1 cells [3]; Homo sapiens, 48 h) of roughly 130 µM and an IC50 (TK6/SULT vector cells [4]; Homo sapiens, 48 h) of roughly 130 µM.
With `Oc1cc(Cl)ccc1Oc1ccc(Cl)cc1Cl` [Triclosan, triclosan] the Sulfonation of triclosan (SULT1C2) was 28.5 ± 0.2 pmol min^−1 mg cytosolic protein^−1, the Sulfonation of triclosan (SULT2B1) was 46.6 ± 1.9 pmol min^−1 mg cytosolic protein^−1 and the Sulfonation of triclosan (SULT4A1) was 50.4 ± 0.6 pmol min^−1 mg cytosolic protein^−1. The Sulfonation of triclosan (SULT6B1) was 33.8 ± 1.0 pmol min^−1 mg cytosolic protein^−1 and the “Sulfonation activity towards triclosan” value [5] was “showed sulfonation activity”.
With `O=C1Nc2c(COS(=O)(=O)O)ccnc2N(C2CC2)c2ncccc21` [12-Sulfoxynevirapine] the Stability in buffer ([6]; 50 mM Bis-Tris, pH 7.1, room temperature) was “stable” and the Stability in buffer ([6]; 100 mM sodium phosphate, pH 7.2, room temperature) was “stable”.
In the case of `O=C1Nc2c(CO)ccnc2N(C2CC2)c2ncccc21` [12-Hydroxynevirapine], the IC50 (TK6 cells; TK6 cells, 48 h exposure, MTT assay) is reported as 42.6 µM, the “Formation of 12-sulfoxynevirapine in treated cells” value (TK6/SULT vector cells [7]) is reported as “not detected” and the Km (SULT1A1 [8]) is reported as 787 ± 62.2 µM. The Km (SULT1C4 [9]) was 260 ± 38.9 µM, the Km (SULT1E1 [10]) was 216 ± 34 µM and the Km (SULT2A1 [11]) was 545 ± 68.5 µM. The Cell viability (TK6/SULT vector cells [12]) was “approximately 50%”, the Cell viability (TK6/SULT2A1 cells [13]) was “approximately 50%” and the IC50 (TK6/SULT2A1 cells [3]; TK6/SULT2A1 cells, 48 h exposure, MTT assay) was 89.9 µM. The IC50 (TK6/SULT vector cells [4]; TK6/SULT vector cells, 48 h exposure, MTT assay) was 45.1 µM, the Vmax [14] was 71.0 ± 4.5 pmol min^−1 cytosolic protein mg^−1 and the Vmax (SULT1A1 [15]) was 71.2 ± 2.0 pmol min^−1 cytosolic protein mg^−1. The Vmax (SULT1C4 [16]) was 56.0 ± 2.2 pmol min^−1 cytosolic protein mg^−1 and the Vmax (SULT1E1 [17]) was 71.0 ± 2.8 pmol min^−1 cytosolic protein mg^−1.
In the case of `Oc1c(Cl)c(Cl)c(Cl)c(Cl)c1Cl` [Pentachlorophenol, pentachlorophenol], the “Triclosan being sulfated in the presence of inhibitor” value (SULT1E1 [18]) is reported as 44%, the “Triclosan being sulfated in the presence of inhibitor” value (SULT2A1 [19]) is reported as 12% and the “Cytotoxicity of the SULT substrate alone” value (TK6/SULT2A1 cells [3]; TK6/SULT2A1 cells, tested concentration (DHEA 5 μM, pentachlorophenol 10 μM), 48 h, MTT) is reported as “not cytotoxic”. The “Cytotoxicity of the SULT substrate alone” value (TK6/SULT vector cells [4]; TK6/SULT vector cells, tested concentration (DHEA 5 μM, pentachlorophenol 10 μM), 48 h, MTT) was “not cytotoxic”.

— PMC12434715 (Biochemical pharmacology, 2018)
